Measured values: patent publication EP4623908A1, “USE OF (-)-EPIGALLOCATECHIN GALLATE COMPOUND” (CF Pharmtech, Inc., priority 2022, dated 2024)

Tests used:
[1] = cited from earlier work
[2] = animal experiments; inhalation; cited from earlier work
[3] = cited from earlier work; remark: listed apart in the source
[4] = tested on: Pulmonary Fibrosis Induced by Bleomycin in Rats; test: Bleomycin-induced pulmonary fibrosis model in rats (Example 5); type: in vivo, SD rats
Procedure: This study aims to compare the effects of different administration methods, including oral gavage of EGCG, tracheal nebulization of pirfenidone solution, and tracheal nebulization of EGCG at different doses, on the collagen content in lung tissues and pathological observations of rats with bleomycin-induced pulmonary fibrosis. The therapeutic effect of inhaled EGCG on rat pulmonary fibrosis was evaluated.
The solvents for the EGCG nebulization solution, modeling agents, and their solvents are as described in Example 4. The positive control drug is pirfenidone (purity 99%, pharmaceutical grade), with the solvent components consisting of NaCl and citric acid, forming a clear liquid.
SPF-grade SD rats, 6-9 weeks old with a weight of 200-300g, totaling 88 rats, were randomly divided into the following groups: • Sham operation group (normal control) (8 rats) • Pulmonary fibrosis model control group (10 rats) • Oral gavage EGCG group 1 (10 rats) • Oral gavage EGCG group 2 (10 rats) • Tracheal Nebulization EGCG solution groups 1-4 (10 rats per group, total 40 rats) • Tracheal Nebulization pirfenidone solution group (10 rats)
On D1, the normal control group was administered solvent 2 (saline injection solution, 1 mL/kg) via tracheal nebulization, while all other groups were administered bleomycin (2.5 mg/kg, 1 mL/kg) via tracheal nebulization twice a day (morning and afternoon) to establish the model. On D8, the body weights of the animals were recorded. From D10 to D28, the normal control and pulmonary fibrosis model groups were treated with solvent 1 via tracheal nebulization, while the remaining groups were administered EGCG or pirfenidone once daily at the following doses and administration methods: • Oral gavage EGCG group 1 and 2: 30 mg/kg, 60 mg/kg • Tracheal Nebulization EGCG group 1-4: 0.05 mg/kg, 0.4 mg/kg, 0.8 mg/kg, 1.6 mg/kg • Tracheal Nebulization pirfenidone solution group: 0.9 mg/kg (reference dose from M.W. Surber et al., ATS POSTER, 2014)
On D29, all animals were euthanized for dissection. During the necropsy, the lungs, trachea, and bronchi were examined for abnormalities. Left lung tissue was preserved at below -60°C for hydroxyproline content detection, and right lung tissue was prepared for pathological sectioning. Hematoxylin and eosin (HE) staining and Masson staining were performed for pathological morphological observations and fibrosis evaluation.
All groups were compared to the model group using statistical analysis via Kruskal-Wallis test. The results are indicated as follows: • *P < 0.05: statistically significant difference • **P < 0.01: highly significant difference • ***P < 0.001: extremely significant difference • ****P < 0.0001: extremely highly significant difference

[5] = nebulized 100 mg vs oral 801 mg

Row | Structure (SMILES) | diarrhea in clinical study participants ([1]; oral 150 mg twice daily (BID)) | half-life in the lungs [2] | photosensitivity reactions in patients ([1]; oral 801 mg three times daily (TID)) | plasma drug concentrations ([3]; inhalation) [µg/mL] | Cmax in epithelial lining fluid (ELF) relative to the Cmax of the oral dose (higher) [3, 5] [times] | systemic exposure relative to the oral dose (lower) [3, 5] | Hydroxyproline Content ([4]; rat lung tissue, positive control, Inh 0.9 mg/kg once daily D10 to D28, Mean ±SEM) [µg/µL] | hydroxyproline content in rat lungs, difference from the model group ([4]; tracheal nebulization of pirfenidone solution 0.9 mg/kg)
1 | COC(=O)c1ccc2c(c1)NC(=O)/C2=C(\Nc1ccc(N(C)C(=O)CN2CCN(C)CC2)cc1)c1ccccc1 [nintedanib] | up to 61.5% | – | – | – | – | – | – | –
2 | Cc1ccc(=O)n(-c2ccccc2)c1 [pirfenidone] | – | about 10 minutes | up to 51% | 0.807 to 1.37 | 35 | about 15 times | 0.587 ± 0.059 | not statistically significant
